For 4 cell lines, relative viability results are on record in the supplement of paper PMC10307832.

Test in all cases: relative viability (nuclei count vs DMSO), 5 days (fraction); higher = more cells survive
Compound in experiment [1]: CC1CC(=O)N(C2=CN=C(N=C2N1C3CCCC3)NC4=C(C=C(C=C4)C(=O)NC5CCN(CC5)C)OC)C [NPK76-II-72-1] + C[C@@H](Oc1cc(-c2cnn(C3CCNCC3)c2)cnc1N)c1c(Cl)ccc(F)c1Cl [Crizotinib] (partner 1 µM)
In outline: (§1)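 Five library-drug doses in √10 steps were combined with a fixed anchor-drug dose, or a single drug was given alone, by pin tool to lung cancer cell lines in 1536-well plates the day after seeding. Nuclei were stained and counted after 5 days. Relative viability is the nuclei count in treated wells over that in vehicle wells, taken as the median of duplicate plates.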

Compound in the experiment “BI-2536 + Bortezomib”: CC[C@@H]1C(=O)N(C)c2cnc(Nc3ccc(C(=O)NC4CCN(C)CC4)cc3OC)nc2N1C1CCCC1 [BI-2536] + CC(C)C[C@H](NC(=O)[C@H](Cc1ccccc1)NC(=O)c1cnccn1)B(O)O [Bortezomib] (partner 0.002 µM)
In outline:
as §1

Compound in experiment [2]: CC1CC(=O)N(C2=CN=C(N=C2N1C3CCCC3)NC4=C(C=C(C=C4)C(=O)NC5CCN(CC5)C)OC)C [NPK76-II-72-1] + CC(C)C[C@H](NC(=O)[C@H](Cc1ccccc1)NC(=O)c1cnccn1)B(O)O [Bortezomib] (partner 0.002 µM)
Put shortly:
as §1

Compound in the experiment “BI-2536 + AZD7762”: CC[C@@H]1C(=O)N(C)c2cnc(Nc3ccc(C(=O)NC4CCN(C)CC4)cc3OC)nc2N1C1CCCC1 [BI-2536] + NC(=O)Nc1cc(-c2cccc(F)c2)sc1C(=O)N[C@H]1CCCNC1 [AZD7762] (partner 0.2 µM)
Put shortly:
as §1

Consider NCI-H2405, for which the relative viability is 0.863 in experiment [1] (first compound 0.01 µM); 0.951 in experiment [1] (first compound 0.03162 µM); 0.816 in experiment [1] (first compound 0.1 µM); 0.798 in experiment [1] (first compound 0.3162 µM); 0.855 in experiment [1] (first compound 1 µM); 0.829 in the experiment with BI-2536 + Bortezomib (first compound 0.01 µM). For the same cell line, the relative viability came to 1.04 with BI-2536 + Bortezomib (first compound 0.03162 µM); 0.588 with BI-2536 + Bortezomib (first compound 0.1 µM); 0.632 with BI-2536 + Bortezomib (first compound 0.3162 µM); 0.723 with BI-2536 + Bortezomib (first compound 1 µM); 1.01 in experiment [2] (first compound 0.01 µM); 0.99 in experiment [2] (first compound 0.03162 µM). Further, the relative viability came to 0.921 in experiment [2] (first compound 0.1 µM); 0.753 in experiment [2] (first compound 0.3162 µM); 1.11 in experiment [2] (first compound 1 µM); 0.698 in the experiment with BI-2536 + AZD7762 (first compound 0.01 µM); 0.624 in the experiment with BI-2536 + AZD7762 (first compound 0.03162 µM); 0.269 with BI-2536 + AZD7762 (first compound 0.1 µM). Moreover, the relative viability in the experiment with BI-2536 + AZD7762 (first compound 0.3162 µM) is 0.303; with BI-2536 + AZD7762 (first compound 1 µM), 0.289.
Turning to NCI-H322M, the relative viability was 0.968 in experiment [1] (first compound 0.01 µM); 0.944 in experiment [1] (first compound 0.03162 µM); 0.868 in experiment [1] (first compound 0.1 µM); 0.873 in experiment [1] (first compound 0.3162 µM); 0.983 in experiment [1] (first compound 1 µM); 1.32 in the experiment with BI-2536 + Bortezomib (first compound 0.01 µM). Also, the relative viability with BI-2536 + Bortezomib (first compound 0.03162 µM) came out at 1.22; with BI-2536 + Bortezomib (first compound 0.1 µM), 1.34; in the experiment with BI-2536 + Bortezomib (first compound 0.3162 µM) it was 1.34; in the experiment with BI-2536 + Bortezomib (first compound 1 µM), 0.311; in experiment [2] (first compound 0.01 µM) it was 1.17; in experiment [2] (first compound 0.03162 µM), 1.3. In addition, the relative viability in experiment [2] (first compound 0.1 µM) is 1.24; in experiment [2] (first compound 0.3162 µM), 1.39; in experiment [2] (first compound 1 µM) it was 1.36; with BI-2536 + AZD7762 (first compound 0.01 µM), 0.61; with BI-2536 + AZD7762 (first compound 0.03162 µM), 0.53; with BI-2536 + AZD7762 (first compound 0.1 µM), 0.496. Besides, the relative viability with BI-2536 + AZD7762 (first compound 0.3162 µM) was found to be 0.394; in the experiment with BI-2536 + AZD7762 (first compound 1 µM), 0.406.
For NCI-H838, the relative viability in experiment [1] (first compound 0.01 µM) came out at 0.865; in experiment [1] (first compound 0.03162 µM), 0.952; in experiment [1] (first compound 0.1 µM), 0.823; in experiment [1] (first compound 0.3162 µM), 0.734; in experiment [1] (first compound 1 µM), 0.848; with BI-2536 + Bortezomib (first compound 0.01 µM), 0.878. In addition, the relative viability with BI-2536 + Bortezomib (first compound 0.03162 µM) stood at 0.824; with BI-2536 + Bortezomib (first compound 0.1 µM), 0.16; with BI-2536 + Bortezomib (first compound 0.3162 µM) it was 0.115; with BI-2536 + Bortezomib (first compound 1 µM), 0.111; in experiment [2] (first compound 0.01 µM) it was 0.768; in experiment [2] (first compound 0.03162 µM), 0.885. Also, the relative viability came out at 0.988 in experiment [2] (first compound 0.1 µM); 0.771 in experiment [2] (first compound 0.3162 µM); 0.715 in experiment [2] (first compound 1 µM); 0.905 with BI-2536 + AZD7762 (first compound 0.01 µM); 0.803 with BI-2536 + AZD7762 (first compound 0.03162 µM); 0.831 with BI-2536 + AZD7762 (first compound 0.1 µM). Moreover, the relative viability in the experiment with BI-2536 + AZD7762 (first compound 0.3162 µM) and with BI-2536 + AZD7762 (first compound 1 µM) was 0.634 each time.
On to CAL-12T, for which the relative viability in experiment [1] (first compound 0.01 µM) came out at 0.685; in experiment [1] (first compound 0.03162 µM) it was 0.665; in experiment [1] (first compound 0.1 µM) it was 0.719; in experiment [1] (first compound 0.3162 µM), 0.544; in experiment [1] (first compound 1 µM), 0.674; with BI-2536 + Bortezomib (first compound 0.01 µM) it was 0.926. Further, the relative viability with BI-2536 + Bortezomib (first compound 0.03162 µM) amounted to 0.823; with BI-2536 + Bortezomib (first compound 0.1 µM), 0.393; with BI-2536 + Bortezomib (first compound 0.3162 µM) it was 0.182; with BI-2536 + Bortezomib (first compound 1 µM), 0.192; in experiment [2] (first compound 0.01 µM) it was 0.874; in experiment [2] (first compound 0.03162 µM), 0.832. The relative viability amounted to 0.872 in experiment [2] (first compound 0.1 µM); 1.01 in experiment [2] (first compound 1 µM); 0.608 in the experiment with BI-2536 + AZD7762 (first compound 0.01 µM); 0.712 with BI-2536 + AZD7762 (first compound 0.03162 µM); 0.619 in the experiment with BI-2536 + AZD7762 (first compound 0.1 µM); 0.177 with BI-2536 + AZD7762 (first compound 0.3162 µM). Also, the relative viability with BI-2536 + AZD7762 (first compound 1 µM) was found to be 0.187.
